According to patent US12150945B2, “Liver disease” (Lipocine Inc., priority 2018, dated 2024):

Assays:
Type in all cases: in vivo, human
[1] = Serum testosterone pharmacokinetics (24-hour PK sampling, LC-MS/MS), phase 3 oral testosterone undecanoate trial of Example 1; conditions: for Average serum T levels: single blood draw 3 to 6 hours post morning dose
Protocol: (§1) Oral testosterone therapy was evaluated in a multicenter, phase 3, randomized, open-label, active controlled, parallel-group study that included a 13-week efficacy phase and a 52-week safety phase. An active arm in which subjects received T gel was included for safety evaluation only.
Males 18 through 80 years old with a documented diagnosis of primary hypogonadism (congenital or acquired) or hypogonadotropic hypogonadism (congenital or acquired) and with morning serum T<300 ng/dL based on 2 consecutive blood samples obtained between 0600 and 1000 on 2 separate days at approximately the same time were eligible to participate. Subjects were either naïve to T therapy or completed an adequate washout of T therapy (eg, 12 weeks after intramuscular androgen injections excluding TU injections which required a longer waiting period; 4 weeks after topical or buccal androgens; and 3 weeks after oral androgens). Exclusion criteria included abnormal prostate digital rectal examination with palpable nodule(s) or International Prostate Symptom Score (IPSS)>19 points; body mass index ≥38 kg/m^2, clinically significant laboratory values (baseline hemoglobin <11.5 or >16.5 g/dL, hematocrit <35% or >54%, serum transaminases >2.5 times upper limit of normal, serum bilirubin >2.0 mg/dL, creatinine >2.0 mg/dL, prostate specific antigen [PSA]>2 ng/mL, prolactin >17.7 ng/mL); history of seizures or convulsions; any surgical procedure that might interfere with gastrointestinal motility, pH, or absorption; stroke or myocardial infarction within 5 years; current or suspected prostate or breast cancer; severe, untreated, obstructive sleep apnea; long QT syndrome or unexplained sudden death in first-degree relative; concurrent medication use that could impact absorption, distribution, metabolism, or excretion of TU or place subject at risk for treatment with T; and dose changes of antihypertensive, lipid-lowering, or hypoglycemic agents within previous 3 months.
(§2) Subjects were randomized in a 2:1 ratio to oral testosterone undecanoate or T gel. oral testosterone undecanoate subjects started at a dose of 225 mg TU (“testosterone undecanoate”) taken twice daily (total daily dose: 450 mg TU) every 12 hours. For optimal lymphatic absorption oral testosterone undecanoate must be administered with a meal. Therefore, subjects were instructed to administer oral testosterone undecanoate after a standard meal (defined as a meal consisting of 800 to 1400 calories with approximately 20% to 35% fat content). The oral testosterone undecanoate dose was titrated at Weeks 4 and 8, if necessary, based on results of intensive 24-hour PK blood sampling obtained at Weeks 3 and 7, respectively. Oral testosterone undecanoate subjects stayed at the clinic overnight during each intensive PK blood sampling period. […] Oral testosterone undecanoate dose levels permitted during the study were 150 mg BID, 225 mg BID, and 300 mg BID. Data collected during an intensive 24-hour PK sampling overnight stay at Week 13 were used for efficacy analysis; dose was not adjusted at this visit. Additional outpatient visits were conducted at Weeks 26, 39, and 52 during which single blood draws were performed 3 to 6 hours post morning dose. Dose was not adjusted during these visits.
(§3) Serum levels of T, TU, dihydrotestosterone (DHT), dihydrotestosterone undecanoate (DHTU), and estradiol (E2) were evaluated in oral testosterone undecanoate treated subjects. […] Sex hormone binding globulin (SHBG) was evaluated in data from all subjects. Serum T concentrations at screening were measured using chemiluminescence immunoassay kits. Hormone assays for pharmacokinetic assessment were analyzed at PPD Bioanalytical Laboratory in Richmond, Virginia Serum samples were analyzed for T, DHT, TU, DHTU, and E2 using a validated liquid chromatography-tandem mass spectrometry (LC-MS/MS) assay.

[2] = Serum DHT, DHT/T ratio, E2 and calculated free T, hormone assessment in trial of Example 1; conditions: for ratio of DHT/T based on Cavg0-24 h / ratio of DHT/T based on Cmax: normal range 0.05 to 0.33
Protocol: as §2, §3

SHBG = assay: Sex hormone binding globulin (SHBG) levels, trial of Example 1
Protocol: as §1
Subjects were randomized in a 2:1 ratio to oral testosterone undecanoate or T gel. oral testosterone undecanoate subjects started at a dose of 225 mg TU (“testosterone undecanoate”) taken twice daily (total daily dose: 450 mg TU) every 12 hours. For optimal lymphatic absorption oral testosterone undecanoate must be administered with a meal. […]
as §3

[3] = tested on: Lipoprotein-associated phospholipase A2; assay: Lipoprotein-associated phospholipase A2, change from baseline to end of study, trial of Example 1
Protocol: as §1, §2
(§4) T gel (ANDROGEL®) (testosterone gel for topical use) 1.62%, AbbVie, Chicago, Illinois, US) was supplied in non-aerosol, metered dose pumps that deliver 20.25 mg T per complete pump actuation. T gel was dosed according to product labeling. Subjects receiving T gel completed outpatient visits at Weeks 2 and 4 with single blood draws to determine titration and at Weeks 3 and 5 for dose changes, if necessary. They also completed an outpatient visit at Week 7 for safety assessments and at Weeks 13, 26, 39 and 52 during which single blood samples were obtained 3 to 6 hours after the morning dose. Dose was not adjusted during these visits. Overnight clinic stays were not required for T gel subjects.
(§5) Safety endpoints included adverse events (AEs), physical examination findings, vital signs, electrocardiograms (ECGs), and clinical laboratory tests. AEs were classified using the Medical Dictionary for Regulatory Activities (Version 16.1). Safety endpoints were summarized using descriptive statistics. Lab parameters were evaluated using two sample t-tests comparing change from baseline to end of study (EOS) across oral testosterone undecanoate and T gel subjects with p-values <0.05 considered statistically significant.

hematocrit, hemoglobin = assay: Androgenic parameters (hematocrit, hemoglobin), change from baseline to end of study, safety set, trial of Example 1
Protocol: as §1, §2, §4, §5

liver function enzymes = assay: Liver function enzymes (ALT, AST, ALP, GGT, bilirubin), change from baseline to end of study, trial of Example 1; conditions: 4th quartile patients based on lab parameter level; 1 year study
Protocol: as §1, §2, §4, §5

[4] = 4th quartile patients based on lab parameter level, 1 Year Oral TU Study
[5] = Safety Set, baseline to end of study

CCCCCCCCCCC(=O)O[C@H]1CC[C@H]2[C@@H]3CCC4=CC(=O)CC[C@]4(C)[C@H]3CC[C@]12C [oral testosterone undecanoate, testosterone undecanoate]
serum T Cavg0-24 h ([1]; Week 13): 446 ng/dL
serum T Cmax ([1]; Week 13): 1134 ng/dL
subjects with serum T Cavg0-24 h between 300 and 1140 ng/dL ([1]; Week 13, 95% lower bound CI: 81.7%, met predefined efficacy criteria): 87.4%
Average serum T levels ([1]; Week 26): 481 ± 371 ng/dL
Average serum T levels ([1]; Week 39): 543 ± 438 ng/dL
Average serum T levels ([1]; Week 52): 538 ± 545 ng/dL
ratio of DHT/T based on Cavg0-24 h ([2]; Week 3): 0.24
ratio of DHT/T based on Cmax ([2]; Week 3): 0.16
ratio of DHT/T based on Cavg0-24 h ([2]; Week 7): 0.26
ratio of DHT/T based on Cmax ([2]; Week 7): 0.18
ratio of DHT/T based on Cavg0-24 h ([2]; Week 13): 0.26
ratio of DHT/T based on Cmax ([2]; Week 13): 0.18
Calculated free T levels ([2]; normal values 9 to 30 ng/dL): consistently within normal values
SHBG change from baseline (SHBG; Week 13 (largest decrease)): -11.75 nmol/L
Mean SHBG levels (SHBG; each post-baseline visit): decreased
Lp-PLA2, mean change from baseline [3, 4]: -47.8 ng/mL
Lp-PLA2, mean change from baseline, % [3, 4]: −17.1%
Lp-PLA2, mean (SD) change from baseline to end of study [3, 5]: −9.6 (42.07) ng/mL
Lipoprotein-associated phospholipase A2, baseline to EOS ([3]; difference in change between groups not significant): decreased significantly
Elevated hematocrit (>54%), number of subjects (hematocrit, hemoglobin; 52-week safety phase): 8 subjects
subjects withdrawn for elevated hematocrit (>54%) (hematocrit, hemoglobin; 52-week safety phase): 1.4%
Hematocrit, mean (SD) change from baseline to end of study (hematocrit, hemoglobin; Safety Set, N = 314, baseline to end of study): 2.54 (3.41) %
APTT, mean (SD) change from baseline to end of study (hematocrit, hemoglobin; [5]): 0.61 (4.07)
Hemoglobin, mean (SD) change from baseline to end of study (hematocrit, hemoglobin; [5]): 7.2 (10.65) g/L
PSA, mean (SD) change from baseline to end of study (hematocrit, hemoglobin; [5]): 0.27 (0.97) mcg/L
Platelets, mean (SD) change from baseline to end of study (hematocrit, hemoglobin; [5]): 8.5 (31.34) 10^9/L
Prothrombin time, mean (SD) change from baseline to end of study (hematocrit, hemoglobin; [5]): 0.31 (1.14) sec
hemoglobin, pretreatment to EOS (hematocrit, hemoglobin; in vivo): Small and similar increases
ALP, mean change from baseline (liver function enzymes): −10.2 U/L
ALP, mean change from baseline, % (liver function enzymes): −10.4%
ALT, mean change from baseline (liver function enzymes): −10.0 U/L
ALT, mean change from baseline, % (liver function enzymes): −16.7%
AST, mean change from baseline (liver function enzymes): -6.3 U/L
AST, mean change from baseline, % (liver function enzymes): −16.6%
Albumin, mean change from baseline (liver function enzymes): -2.5 g/L
Albumin, mean change from baseline, % (liver function enzymes): −3.1%
Bilirubin, mean change from baseline (liver function enzymes): -0.18 mg/dL
Bilirubin, mean change from baseline, % (liver function enzymes): −20.5%
Creatinine, mean change from baseline (liver function enzymes): 0.01 mg/dL
Creatinine, mean change from baseline, % (liver function enzymes): 0.8%
